Test results as given in patent US11813277B2, “Methods and agents for modulating inflammation” (The Regents of the University of California, priority 2018, dated 2023).

Experiments:
[1] = system: phosphate (Pi) transporter; test: Phosphate transporter assay (mitochondrial swelling); format: biochemical, rat; conditions: 250 μM etomoxir, 100 μM NEM, 10 μM mersalyl
Procedure: Phosphate transport was measured by monitoring swelling of de-energized mitochondria in isotonic potassium phosphate medium based upon principles described by Coty, W. A. and Pedersen, P. L. (1975) Phosphate transport in rat liver mitochondria. Kinetics, inhibitor sensitivity, energy requirements, and labeled components. Mol Cell Biochem. 9, 109-24. As the phosphate carrier acts as electroneutral symporter with protons, the process is self-restricting due to generation of an opposing pH gradient. […] In the presence of nigericin, the proton fluxes cycle resulting in electro- and pH-neutral transport of potassium phosphate down its concentration gradient into the mitochondrial matrix, resulting in osmotic accumulation of water. Under these conditions, transport is limited by the activity of phosphate carrier, and can be recorded as mitochondrial swelling (a decrease in light scattering).
The measurements were performed in an LS-50B spectrofluorometer (Perkin-Elmer) at 540 nm. Assay medium contained 125 mM potassium phosphate, pH 7.2, 0.5 mM EGTA, and 2 μM rotenone. Mouse liver mitochondria (0.5 mg/ml) were treated with 250 μM etomoxir, 100 μM N-ethylmaleimide (NEM) (Klingenberg, M., Durand, R., and Guerin, B. (1974) Analysis of the reactivity of SH-reagents with the mitochondrial phosphate carrier. Eur J Biochem, 42, 135-150) or 10 μM mersalyl (Paradies, G. and Ruggiero, F. M. (1991) Effect of aging on the activity of the phosphate carrier and on the lipid composition in rat liver mitochondria. Arch Biochem Biophys. 284, 332-337) and the reaction was started with 5 μM nigericin. Typical traces from 3 experiments are shown. To establish the maximally swollen state of mitochondria, 80 μg/ml alamethicin was used.

[2] = system: M(IL-4) polarization of BMDMs; test: Flow cytometry of IL-4-associated cell surface markers in BMDMs; format: cell-based, mouse; conditions: for number of cells positive for both CD206 and CD71: IL-4; for population of CD206+/CD71+ cells: oxidative phosphorylation inhibitors co-treated with IL-4
Procedure: (§1) For all gene expression and flow cytometry experiments described below, day 6 BMDM were plated at 3×10^5 cell/well in 12-well plates. The next day, cells were treated with appropriate compounds (and duration as indicated in figures and below) in DMEM supplemented with 5% FBS, 2 mM L-glutamine, 100 units/mL, 100 μg/mL penicillin/streptomycin, 500 μM of sodium pyruvate and 5% v/v conditioned media containing macrophage colony stimulating factor (M-CSF).
(§2) For flow cytometry experiments involving etomoxir (FIG. 1G, FIG. 2A, FIG. 2D, FIG. 3A, FIG. 3B, FIG. 3G, FIG. 3H): BMDMs were mock-treated (media replacement only) or treated with 20 ng/mL of IL-4±3 μM or 200 μM of etomoxir for 48 hr. When measuring expression of M(IL-4)-associated genes in response to etomoxir (FIG. 1H, FIG. 2B), BMDMs were mock-treated or treated with 20 ng/mL of IL4±etomoxir as indicated for 24 hr.
(§3) For experiments involving respiratory chain inhibitors: BMDMs were mock-treated (media replacement only) or treated with 20 ng/mL of IL4±1.2 μM oligomycin (Oligo), 200 nM rotenone (Rot), 200 nM antimycin A (AntiA), 100 nM piericidin A (PierA), or 5 μM carboxyatractylate (CAT) for either 24 (FIG. 4G, FIG. 4H, FIG. 6G) or 48 hr (FIG. 4F, FIG. 7D). All inhibitors were given as co-treatments simultaneously with IL-4.
For experiments involving CoA supplementation (FIG. 10A, FIG. 10B, FIG. 10C, FIG. 10D, FIG. 10E, FIG. 9C, FIG. 9D): BMDMs were mock-treated (media replacement only) or treated with 20 ng/mL of IL4±etomoxir (concentration indicated in figures)±CoA (concentration indicated in figures) for 48 hr. Etomoxir and CoA were given as co-treatments simultaneously with IL-4.
Prior to FACS analysis, BMDMs were detached using 350 μL of Accutase, followed by two washes with FACS buffer (PBS+1% (v/v) BSA+0.05% (w/v) sodium azide). Anti-mouse CD16/32 antibody was used at a dilution of 1:500, while all other antibodies were used at a dilution of 1:250. All flow cytometry data were captured using BD FACSVerse flow cytometer and analyzed using the FlowJo X 10.0.7r2 software. In all, 2×104 live events were acquired for each sample (gated on DAPIneg). For analysis, CD206+/CD71+ and CD206+/CD301+ populations were gated based on Fluorescence Minus One (FMO) controls.

[3] = system: Relma, Mgl2, Ym1, Fabp4, Arg1 expression; test: qPCR of IL-4-associated genes in BMDMs; format: cell-based, mouse; conditions: for IL-4-induced expression of Relma, Ym1, Mgl2: electron transport chain inhibitors
Procedure: as §1, §2, §3
RNA was isolated with TRIzol, then cDNA was synthesized with high-capacity cDNA reverse transcription kit. KAPA SYBR FAST qPCR Master Mix kit and a LightCycler 480 were used for quantitative RT-PCR. Fold change related to the control group was calculated using […] with 36b4 as the reference gene.

BMDMs = test: Basal mitochondrial respiration in intact BMDMs; format: cell-based, mouse; conditions: 1.2 μM oligomycin, 200 nM rotenone, 200 nM antimycin A, 100 nM piericidin A, 5 μM CAT
Procedure: All respirometry studies were conducted in either a Seahorse XF96 or XFe96 Analyzer. All experiments were conducted at 37° C., and at pH 7.4 (intact cells) or 7.2 (permeabilized cells and isolated mitochondria). Calculation of respiratory parameters was made according to standard protocols (Divakaruni, A. S., Paradyse, A., Ferrick, D. A., Murphy, A. N., and Jastroch, M. (2014a) Analysis and interpretation of microplate-based oxygen consumption and pH data. Meth. Enzym 547, 509-54), and all rates were corrected for non-mitochondrial respiration/background signal by subtracting the oxygen consumption rate insensitive to rotenone plus antimycin A.
Respiration in intact BMDMs was measured in medium containing 8 mM glucose, 2 mM glutamine, 2 mM pyruvate, and 5 mM HEPES. Cells were plated at 5.0×10^4 cells/well and assayed after 48 hr. When measuring the response to IL-4, cells were treated with 20 ng/mL of IL-4 24 hr. after initial plating, and respiration was measured the following day (˜48 hr after initial seeding). […]

[4] = system: adenine nucleotide translocase (ANT); test: ATP hydrolysis in isolated mitochondria, intact or alamethicin-permeabilized; format: biochemical, rat
Description: ATP hydrolysis in isolated mitochondria (McQuaker, S. J., Quinlan, C. L., Caldwell, S. T., Brand, M. D., and Hartley, R. C. (2013). A prototypical small molecule modulator uncouples mitochondria in response to endogenous hydrogen peroxide production. Chembiochem. 14, 993-1000; Divakaruni, A. S., Andreyev, A. Y., Rogers, G. W., and Murphy, A. N. (2017a) In situ measurements of mitochondrial matrix enzyme activities using plasma and mitochondrial membrane permeabilization agents. Anal. Biochem. 17, 30385-8) was performed in MAS buffer, and stimulated by respiratory chain inhibition (1 μM rotenone and 2 μM antimycin A) followed by addition of excess ATP (25 mM) and uncoupler (1 μM FCCP). Hydrolysis was inhibited by injection of either oligomycin (3 ng/mg mitochondrial protein) or carboxyatractylo side (7.5 ng/mg mitochondrial protein). Rates of extracellular acidification (ECAR, in mpH/min) were converted to proton production rates (PPR, in pmol H+/min) by determining the buffer capacity with sequential injections of HCl and H2SO4 (Mookerjee, S. A., Goncalves, R. L., Gerencser, A. A., Nicholls, D. G., and Brand, M. D. (2015). The contributions of respiration and glycolysis to extracellular acid production. Biochim et Biophys Acta. 1847, 171-81). 10 μg/mL alamethicin was used to permeabilize the mitochondrial inner membrane (1 μg/mg mitochondrial protein).

LCFA oxidation in BMDMs = test: 9,10-3H-palmitate oxidation (3H2O release) in BMDMs; format: cell-based, mouse; conditions: 200 nM rotenone or 200 nM antimycin A, IL-4-stimulated
Procedure: BMDMs at day 6 of differentiation were seeded at 3×10^5 cells/well in 12 well plates in BMDM media. The next day, cells were treated in DMEM containing 25 mM glucose supplemented with 5% FBS, 2 mM L-Glutamax, 100 units/mL, 100 μg/mL penicillin/streptomycin, 1 mM of sodium pyruvate, 1 mM carnitine, and 5% v/v conditioned media containing macrophage colony stimulating factor (M-CSF) under one of 5 conditions: control, 20 ng/mL of IL-4±3 μM or 200 μM of etomoxir, or 200 nM rotenone, or 200 nM antimycin A for 24 hr. Fatty acid oxidation was measured 24 hours later as previously described (Rognstad, R. (1991) Estimation of peroxisomal and mitochondrial fatty acid oxidation in rat hepatocytes using tritiated substrates. Biochem J 279:147-150, 1991; Cha, B. S., Ciaraldi, T. P., Park, K. S., Carter, L., Mudaliar, S. R., and Henry R R. (2005) Impaired fatty acid metabolism in type 2 diabetic skeletal muscle cells is reversed by PPARgamma agonists. Am J Physiol Endocrinol Metab. 289, E151-9) following a fluid change to DMEM with components as described above except 10 mM glucose and 0.2 μCi (final concentration of 5 μM) BSA-conjugated [9,10-3H]palmitic acid. No additional IL-4 was added at the time of this fluid change, but etomoxir, rotenone and antimycin A were added, and the plates were placed in a […] incubator at 37° C. for 3 hr. After incubation, a 100 μL aliquot of the culture medium was passed over an ion-exchange resin, and the column was washed twice with 0.75 ml of water. Free fatty acids were retained by the resin, whereas the tritium hydrolyzed from radiolabeled palmitate catabolism was released as labeled water, which passes freely through the resin, and is subsequently counted for radioactivity. All data are corrected for protein content in each well. There were 3 technical replicates for each condition, and 4 biological replicates arising from 4 separate animals.

[5] = alamethicin-permeabilized mitochondria
[6] = intact isolated mitochondria, etomoxir 100 μM, CAT 7.5 ng/mg, oligomycin 3 ng/mg

## CCN1C(=O)C=CC1=O [N-ethyl maleimide, N-ethylmaleimide]
[1]
  Pi transporter activity (rate of swelling): inhibited the rate of swelling

## CC(=O)SCCNC(=O)CCNC(=O)[C@H](O)C(C)(C)COP(=O)(O)OP(=O)(O)OC[C@H]1O[C@@H](n2cnc3c(N)ncnc32)[C@H](O)[C@@H]1OP(=O)(O)O [acetyl CoA]
[2]; 500 μM acetyl CoA
  number of cells positive for both CD206 and CD71: cannot reproduce the effect of CoA
[2]; acetyl CoA with CoA, both 500 μM
  number of cells positive for both CD206 and CD71: counteracts the effect of CoA
[3]; 500 μM acetyl CoA
  expression of Arg1, Mgl2 and Fabp4: different effects than CoA

## C=C1[C@@H]2CC[C@H]3[C@]4(C)C[C@H](O[C@@H]5O[C@H](CO)[C@@H](OS(=O)(=O)O)[C@H](OS(=O)(=O)O)[C@H]5OC(=O)CC(C)C)CC(C(=O)O)(C(=O)O)[C@H]4CC[C@]3(C2)[C@H]1O [carboxyatractyloside]
[2]
  population of CD206+/CD71+ cells: none of the inhibitors of ATP synthesis or the electron transport chain significantly lowered
BMDMs
  respiration at 24 hr: strongly reduced respiration
[4]; [5]
  ATP hydrolysis: no effect
[4]; [6]
  ATP hydrolysis: inhibited ATP hydrolysis

## COC(CNC(=O)c1ccccc1OCC(=O)O)[CH2][Hg][OH] (stereo not drawn) [mersalyl]
[1]
  Pi transporter activity (rate of swelling): inhibited the rate of swelling

## CC[C@H]1/C=C/C=C/C[C@@H](C)[C@H](O)[C@@](C)(O)C(=O)[C@@H](C)[C@H](O)[C@@H](C)C(=O)[C@@H](C)[C@H](O)[C@@H](C)/C=C/C(=O)O[C@@H]2[C@H](C)[C@H](CC1)O[C@]1(CC[C@H](C)[C@H](C[C@@H](C)O)O1)[C@H]2C [oligomycin]
[2]
  population of CD206+/CD71+ cells: none of the inhibitors of ATP synthesis or the electron transport chain significantly lowered
BMDMs
  respiration at 24 hr: strongly reduced respiration
[4]; [5]
  ATP hydrolysis: remained inhibitory
[4]; [6]
  ATP hydrolysis: inhibited ATP hydrolysis

## C/C=C(\C)[C@H](O)[C@H](C)/C=C(C)/C=C/C/C(C)=C/Cc1nc(OC)c(OC)c(O)c1C [piericidin A]
[2]
  population of CD206+/CD71+ cells: none of the inhibitors of ATP synthesis or the electron transport chain significantly lowered
[3]; IL-4, 24 hr
  IL-4-induced expression of Relma, Ym1, Mgl2: failed to reduce
[3]; mitochondrial inhibitors, IL-4, 24 hr
  expression of Ym1 and Arg1: increased expression
BMDMs
  respiration at 24 hr: strongly reduced respiration

## antimycin A
LCFA oxidation in BMDMs
  3H2O release from 9,10-3H-palmitate: suppressed LCFA oxidation to levels in line with 200 μM etomoxir
[2]
  population of CD206+/CD71+ cells: none of the inhibitors of ATP synthesis or the electron transport chain significantly lowered
[3]; IL-4, 24 hr
  IL-4-induced expression of Relma, Ym1, Mgl2: failed to reduce
BMDMs
  respiration at 24 hr: strongly reduced respiration
